Usually MBC stands for the lowest tested concentration that kills the bacteria rather than only halting them. A word on the MIC: it is the lowest concentration that inhibits growth of the organism.

The subject of data set [1] is oral biofilms formed on saliva-coated HA disks by salivary bacteria. Description: In vitro plaque assay, viable counts of oral biofilms on saliva-coated HA disks. Conditions: KSL 200 μg/ml. Format: cell-based, human salivary bacteria. From the text: In conjunction with the dual flow cell system, a modification of an in vitro plaque model of biofilm formation described by Guggenheim et al. (Guggenheim et al., 2001) was used to determine the effects of tested antimicrobials and other agents on developed oral biofilms (see Appendix I for details). HA disks (Clarkson, south Williamsport, Pa.) were employed as substrates for salivary bacteria to form biofilms.
To determine the inhibitory activity of KSL on developed oral biofilms, disks containing 45 h-old biofilms were transferred to wells containing aqueous KSL (200 μg/ml; 1 ml/well). Following 30 min exposure at 37° C., disks were rinsed with 3×1 ml of saline and transferred to sterile 15 ml polypropylene tubes containing 1 ml PBS. Biofilm cells adherent to surfaces (after treatment) were recovered by sonicating for 2 min at 5 watts with a Microson ultrasonic cell disrupter equipped with a cup horn (Misonix Inc., Farmingdale, N.Y.). Settings including the time interval used in the sonication were predetermined empirically to yield maximal recovery of adherent biofilm cells.
The effect of KSL on disrupted biofilms was assessed by recovering biofilm cells from HA disks (45 h-old biofilms) through sonication as described above. The detached biofilm cells (in sterile dH2O) were mixed with an equal volume of aqueous KSL to obtain a final peptide concentration of 200 μg/ml, and the reaction mixtures incubated at 37° C. for 30 min. The interactions of KSL and suspended biofilm cells were terminated by washing in PBS.
To determine the effect of the surface-active agent (benzalkonium chloride; Sigma, St. Louis, Mo.) in promoting the killing of intact biofilms by KSL, 66 h-old oral biofilms were treated with KSL (200 μg/ml), benzalkonium chloride (0.001%), or a combination of the two agents, followed by viable counts determinations and confocal laser scanning microscopy of treated samples.
Viable counts of biofilm cells derived from treated disks or disrupted biofilms were determined by spiral plating serially diluted samples onto blood agar plates. Distilled water or 0.12% aqueous chlorhexidine digluconate (Sigma) was used as the negative or positive control, respectively. The 45 h-old biofilms were exposed to chlorhexidine for 1 min, and to water for 30 min at 37° C.
In this assay, HA disks (Clarkson Chromatography Products, Inc., South Williamsport, Pa.) were used as surfaces on which plaque formation can occur. Before use, sterile HA disks were conditioned in the wells of a 24-well microtiter plate (Becton Dickinson, Franklin Lakes, N.J.) containing 50% sterile saliva by incubating at room temperature for a minimum of two hours on a rotating platform at 95 rpm. The saliva was removed and each well inoculated with isolated salivary bacteria at a bacterial cell concentration of 1.0×10^7 cells/ml in sterile 50% whole saliva. After two hours of incubation (with rotation) at 37° C. to allow the bacteria to adhere to surfaces, unattached bacteria were removed and replaced with supplemented saliva-based medium. The plates were incubated with rotation at 37° C. for 45 h (with medium replaced three times), or 66 h (with medium replaced five times) in a CO2 incubator prior to treatments, and the recovery of biofilm cells from treated or untreated disks.
In these studies, KSL or KSL-W was used at 200 μg/ml, whereas Bzl and CPC were used at 0.001% and 0.0025%, respectively. […]

The next data set concerns MRSA WRAMC #12. Format: cell-based, Staphylococcus aureus. From the text: (§1) As shown in the table below, many drug-resistant pathogens including multidrug-resistant Acinetobacter baumannii (clinical isolates) were susceptible to the bactericidal activity of the newly developed antimicrobial peptides. […] This is shown by their lower MIC and MBC against a number of antibiotic-resistant bacteria including methicillin-resistant Staphylococcus aureus, vancomycin-resistant Enterococci, and multidrug-resistant Acinetobacter baumannii. Many of these resistant strains are involved in nosocomial infections, which affect the immunocompromised and the elderly individuals with weakened defenses. The tests were done in a broth microdilution assay as described in our earlier publication (Concannon et al., 2003).

The next data set relates to MRSA ATCC #43300. Format: cell-based, Staphylococcus aureus.
Text: as §1

The next data set concerns MRSA WRAMC #9. It is filed as cell-based, Staphylococcus aureus.
Text: as §1

Another data set has as its system MRSA ATCC #33591. It is filed as cell-based, Staphylococcus aureus.
Text: as §1

Another data set concerns MRSA VVRAMC #10. It is filed as cell-based, Staphylococcus aureus.
Text: as §1

The next data set deals with MRSA VVRAMC #1. Format: cell-based, Staphylococcus aureus.
Text: as §1

How the values of data set [2] were obtained: The chewing gum formulations were prepared following a procedure described previously. The gum base was heated at a temperature between 50 and 60° C. for melting. When the gum base was of the proper fluid consistency, the KSL was added as a fine powder along with the other components. The temperature was kept constant while mixing the components with the gum base in a mortar. After mixing, the homogenous chewing gum mixture was extruded, cut into squares of approximate shape and size and hardened at room temperature overnight. The composition of the gum was as follows: 550 mg of gum base, 420 mg of sorbitol, 10 mg of mannitol, 10 mg of saccharin, and 10, 20 or 30 mg of KSL (total weight: approximately 1 g). In vitro release study of KSL from chewing gums was carried out using an in vitro chewing release apparatus consisting of two modules (AB FIA, Lund, Sweden) (FIG. 1). Each module consists of a thermostatted glass cell in which two vertically oriented pistons holding an upper and a lower chewing plate are mounted. The cells were filled with 40 ml of artificial saliva and the chewing gum was loaded onto the lower chewing surface. […] The released amount of KSL was determined by RP-HPLC.

Ends that are not written are not given here.

Regarding “KKVVFKVKFK-NH2 [KSL, Lys-Lys-Val-Val-Phe-Lys-Val-Lys-Phe-Lys-NH2]”, the “reduction of viability, disrupted biofilms, versus dH2O-treated control cells” value in data set [1] (45 h-old biofilms disrupted by sonication, 30 min, 37° C.) is on record as 1.8 log. The “effect on viability of intact biofilms compared to water treatment” value in data set [1] (66 h-old oral biofilms, benzalkonium chloride 0.001%) is “less effect on the viability”. Moreover, in data set [1] (intact 45-h-old biofilms, 30 min, 37° C.), the “reduction of viable counts, intact biofilms” value is “small reduction of viable counts”. Also, the MBC in the data set with MRSA WRAMC #12 is above 200 µg/mL; against MRSA ATCC #43300, 200 µg/mL; against MRSA WRAMC #9, above 200 µg/mL; in the data set on MRSA ATCC #33591, above 200 µg/mL; against MRSA VVRAMC #10, above 200 µg/mL; against MRSA VVRAMC #1, above 200 µg/mL. Also, the MIC against MRSA WRAMC #12 is above 200 µg/mL; against MRSA ATCC #43300, 100 µg/mL; with MRSA WRAMC #9, above 200 µg/mL; against MRSA ATCC #33591 it was 200 µg/mL; in the data set with MRSA VVRAMC #10, above 200 µg/mL; with MRSA VVRAMC #1, above 200 µg/mL. For the same substance, in data set [2], the “stability of KSL during the gum manufacturing process (HPLC of released KSL)” value was “remains stable”.

For the origin of these results see patent US8778889B2, “Antimicrobial decapeptide oral hygiene treatment” (The United States of America as represented by the …, priority 2003, dated 2014).
